Measured values reported in patent US20250235415A1, “MODULATION OF HUMAN BREAST MILK COMPOSITION” (LUNDQUIST INSTITUTE FOR BIOMEDICAL INNOVATION AT …, priority 2022, published 2025).
“Also recorded” adds a separate entry of the source. Counter-ions that a name gives are not always drawn. Like-named read-outs stand apart in the source and are kept apart here.

Legend:
[1] = test system: infant gut microbiota; assay: TIM-2 in vitro proximal colon model inoculated with infant feces; set-up: species or system human; conditions: high dose LNnT (1000 mg/L) with infant formula
Procedure: Preliminary Data on Effect of HMOs on infant microbiome: These in vitro studies were performed with TIM-2 107-121 inoculated with feces from 3-month old breast-fed infants (pooled microbiota of 5 infants).
Effect of HMO lacto-N-neotetraose (LNnT) on microbiome metabolic activity: We studied the effect of the most abundant HMOs LNnT (200 and 1000 mg/L) on the metabolic activity of the gut microbiota in TIM-2 when exposed to infant formula.
TIM-2 in vitro Colon Model: TIM-2 simulates the colon and consists of four interconnected compartments containing flexible membranes in which peristaltic movements are mimicked. Conditions of healthy human infants are simulated including: body temperature, lumen pH, composition and rate of secretion fluids, delivery of a predigested substrate from the ‘ileum’, mixing and transport of intestinal contents by peristalsis, absorption of water and microbial metabolites through a dialysis system, and presence of a complex, high density, metabolically active and anaerobic microbiota of healthy human infants. The dialysis system prevents accumulation of microbial metabolites, which would otherwise inhibit or kill gut microbiota. The model will be inoculated with a pooled microbiota of healthy human infants (˜2 months) using feces collected (diaper samples) from 10 volunteers and pooled in an anaerobic cabinet to allow for a standardized microbiota. […]

[2] = test system: in vitro cultures; assay: Cell viability of in vitro cultures with orlistat; format: cell-based; conditions: orlistat 250 μM, orlistat-to-palmitate ratio 1:1
[3] = test system: mammary epithelial cells (MECs); assay: 3-D mouse mammary epithelial cell (MEC) primary culture: milk and lipid synthesis and secretion; format: cell-based; conditions: for palmitate-induced MEC "milk" triglyceride concentration: orlistat 100 μmol/L together with palmitate 100 μmol/L; for palmitate-induced MEC "milk" triglyceride concentration / MEC "milk" β-casein protein expression / MEC "milk" triglyceride secretion / concentration: 48 h; for MEC "milk" β-casein protein expression: palmitate 50, 100 μmol/L; for MEC "milk" β-casein protein expression / MEC "milk" triglyceride secretion / concentration: (sodium salt); for MEC "milk" triglyceride secretion / concentration: palmitate 50, 100 μmol/L in basolateral chamber, vs untreated MECs
Procedure: The growth medium consisted of RPMI-1640 supplemented with 10% FBS, 10 μg/mL of insulin, 10 ng/ml of EGF, 100 U/mL of penicillin, and 100 μg/mL of streptomycin. The lactogenic medium consisted of growth medium plus 0.5 U/mL of prolactin and 1 μM dexamethasone. The palmitate-albumin conjugate stock solution contained a palmitate solution (2 mM/L in 50% ethanol) and FA-free BSA (2%) and was diluted in lactation medium to provide 50 and 100 μmol/L palmitate concentrations. Orlistat was dissolved in ethanol.
3-D Cell Culture Model: This example recreated the milk production pathway in mammary epithelial cell (MEC) primary cultures. The method uses cell culture inserts to maintain the cell polarity of MECs, which secrete milk components into the apical (upper) compartment from nutrient sources in the basolateral (lower) compartment (FIG. 1). Briefly, the mice (N=6) were euthanized, and the 4th abdominal mammary glands from both sides were collected in PBS buffer for the isolation of MECs. The mammary glands were minced and incubated in RPMI-1640 medium containing collagenase III (1.5 mg/mL) for 2 h at 37° C. with gentle shaking, followed by centrifugation (600×g for 1 min). The pellet was re-suspended in RPMI-1640 with 0.2% trypsin for 5 min at room temperature. The fragments of the mammary epithelium were dissociated by gentle pipetting with a Pasteur pipette and centrifuged (600×g for 1 min), and the pellet was re-suspended in 60% FBS (fetal bovine serum) followed by centrifugation (10×g for 1 min). The trypsin treatment and centrifugation with FBS were repeated for the isolation of mammary epithelial fragments without contaminating cells, such as fibroblasts, adipocytes, and myoepithelial cells. The epithelial fragments (0.1 mg) were subsequently seeded in 24-well cell culture plates with inserts to separate the basolateral chamber containing the lactogenic medium (nutrients) and the apical chamber containing the secreted MEC “milk”. The cells were cultured for 6 days at 37° C. in growth medium placed in the basolateral chamber. To induce lactogenesis, MECs were cultured in lactogenic medium placed in the basolateral and apical chambers for 2 days at 37° C. To induce a high milk production ability, MECs were cultured at 39° C. with the lactogenic medium in the basolateral chamber and with RMPI-1640 in the apical chamber (FIG. 1).
Treatments: Palmitate (50, 100 μmol/L) or the lipase inhibitor orlistat (100 μmol/L) together with palmitate (100 μmol/L) were added to the lactogenic medium within the basolateral chamber, and RPMI-1640 was maintained in the apical chamber. After 48 h, MECs and apical medium were collected separately for analysis, as described below.
Sample Analysis: Henceforth, we refer to cellular MECs as “MECs” and to apical medium as MEC “milk”. MECs were fixed for immunostaining or stored at −80° C. for protein and mRNA expression studies. MEC “milk” was frozen at −80° C. and analyzed for triglyceride concentration and protein and mRNA expression.
Western Blot: The cells were harvested and dissolved in RIPA solution with a protease inhibitor cocktail and sonicated, and the cell lysates were processed for the analysis of protein concentration by the […] Protein Assay Kit. For the detection of pSTAT5, the protein phosphatase inhibitor NaF (50 mM) was added to all buffers. MEC protein expression of β-casein (25 kDa), FAS (270 KDa), SREBP1 (68 KDa), and pSTAT5 (92 KDa) was analyzed.
MEC “milk” was similarly analyzed for protein expression of β-casein.
RT-PCR: The mRNA abundance of the target genes (lipoprotein lipase, LPL; FAS) and the reference gene (18S) in MEC and MEC “milk” was determined by RT-PCR. Briefly, RNA was extracted following the manufacturer's instructions, using the RNeasy Mini Kit (Qiagen, Valencia, CA, USA). Briefly, a guanidine-thiocyanate-containing lysis buffer and ethanol were added to the samples to promote the selective binding of RNA to the RNeasy membrane. […]

[4] = humans; cited from earlier work
[5] = test system: mammary epithelial cells (MECs); assay: Cell permeability: FITC and FITC-dextran flux from basolateral to apical compartment; format: cell-based, mouse
Procedure: Cell Permeability: To assess whether mammary epithelial permeability was altered by the treatments, we measured the unidirectional flux of fluorescein isothiocyanate (FITC, molecular weight 376) and FITC-labeled dextran 3000 (FITC-dex) from the basolateral to the apical compartments. MECs were prepared as stated above and treated with palmitate and orlistat as described above. After 2 days, FITC and FITC-dex (0.5 mg/mL) were added to the basolateral chamber, and the cells were incubated for 1 h. Thereafter, the basolateral and apical media were aspirated separately, and fluorescence intensity was measured at 490/520 nm excitation/emission maxima. The permeability of the cells is expressed as percent of flux into the apical chamber/total FITC administered into the basolateral chamber.

With CC(=O)N[C@H]1[C@H](O[C@H]2[C@@H](O)[C@@H](CO)O[C@@H](O[C@H]3[C@H](O)[C@@H](O)C(O)O[C@@H]3CO)[C@@H]2O)O[C@H](CO)[C@@H](O[C@@H]2O[C@H](CO)[C@H](O)[C@H](O)[C@H]2O)[C@@H]1O (mixture of isomers) [LNnT, lacto-N-neotetraose] the “L-lactate production by gut microbiota” value [1] was “increased”.

With CCCCCCCCCCC[C@@H](C[C@@H]1OC(=O)[C@H]1CCCCCC)OC(=O)[C@H](CC(C)C)NC=O [orlistat] the cell viability [2] was “demonstrated cell viability”, the “palmitate-induced MEC "milk" triglyceride concentration” value [3] was “reversed; also recorded: suppressed” and the “palmitate-induced MEC "milk" triglyceride concentration” value ([3]; listed as Orlistat) was “normalized”. The systemic absorption [4] was “minimal” and the “FITC fluorescence measured in the apical chamber, treated vs non-treated” value ([5]; after 48 h treatment, 1 h incubation with FITC) was “comparable”.

In the case of CCCCCCCCCCCCCCCC(=O)O [palmitate, palmitate (sodium salt)], the “MEC "milk" β-casein protein expression” value ([3]; apical medium) is reported as “dose-dependent increase”, the “MEC "milk" β-casein protein expression” value ([3]; apical medium, listed as palmitic) is reported as “increases” and the “MEC "milk" mRNA expression of Fas” value ([3]; apical medium, palmitate 48 h) is reported as “increased”. For the same compound, the “MEC "milk" mRNA expression of Lpl” value ([3]; apical medium, palmitate 48 h) was “increased”, the “MEC mRNA expression of Fas” value ([3]; cellular MECs, palmitate 48 h) was “increased” and the “MEC mRNA expression of Lpl” value ([3]; cellular MECs, palmitate 48 h) was “increased”. For the same compound, the “MEC protein expression of FAS” value ([3]; cellular MECs, palmitate 48 h) was “increased”, the “MEC protein expression of SREBP1” value ([3]; cellular MECs, palmitate 48 h) was “increased” and the “MEC protein expression of pSTAT5” value ([3]; cellular MECs, palmitate 48 h) was “increased”. The “MEC protein expression of β-casein” value ([3]; cellular MECs, palmitate 48 h) was “increased”, the “MEC "milk" triglyceride secretion / concentration” value [3] was “dose-dependent increase” and the “MEC "milk" triglyceride secretion / concentration” value ([3]; listed as Na-palmitate) was “doubled”. The “MEC "milk" triglyceride secretion / concentration” value ([3]; listed as palmitic) was “increases” and the “FITC fluorescence measured in the apical chamber, treated vs non-treated” value [5] was “comparable”.
